In PMC10897476, “Pyridylpiperazine efflux pump inhibitor boosts in vivo antibiotic efficacy against K. pneumoniae” (EMBO Molecular Medicine, 2023):
“And” between values parts separate entries of the source, which are not always exact repeats. Equal values may be shown once. Read-outs that look alike come from different tables or passages of the source.

What was measured:
Solubility in PBS pH 7.4 = assay type: physicochemical; details: PBS pH 7.4, pH 7.4, aqueous buffer, thermodynamic from solid
Procedure: 0.5 mg of BDM91288 (5) were dissolved either in 1235 μL of PBS pH 7.4 (triplicate) or in 1235 µL of DMSO (triplicate twice). After gently stirring 24 h at room temperature, the solutions were centrifuged for 5 min at 4000 rpm and filtered over 0.45-μm filters (Millex-LH Millipore), excepted one of the DMSO triplicate. Then, 2 µL of each solution was diluted in 998 µL of MeOH were transferred in matrix tubes for LC-MS/MS analysis. The solubility was determined according to the following formula: Solubility (µM) = [AUC(filtered PBS)/AUC(not filtered DMSO)] × 1000.

[1] = biological target: T1, hERG Human Potassium Ion Channel (Homo sapiens, UniProt Q12809); experiment: hERG [3H] Dofetilide binding assay; details: at 30 µM
T1 construct: Eurofins Cerep France (contract assay)
T1 sequence (Q12809 whole entry): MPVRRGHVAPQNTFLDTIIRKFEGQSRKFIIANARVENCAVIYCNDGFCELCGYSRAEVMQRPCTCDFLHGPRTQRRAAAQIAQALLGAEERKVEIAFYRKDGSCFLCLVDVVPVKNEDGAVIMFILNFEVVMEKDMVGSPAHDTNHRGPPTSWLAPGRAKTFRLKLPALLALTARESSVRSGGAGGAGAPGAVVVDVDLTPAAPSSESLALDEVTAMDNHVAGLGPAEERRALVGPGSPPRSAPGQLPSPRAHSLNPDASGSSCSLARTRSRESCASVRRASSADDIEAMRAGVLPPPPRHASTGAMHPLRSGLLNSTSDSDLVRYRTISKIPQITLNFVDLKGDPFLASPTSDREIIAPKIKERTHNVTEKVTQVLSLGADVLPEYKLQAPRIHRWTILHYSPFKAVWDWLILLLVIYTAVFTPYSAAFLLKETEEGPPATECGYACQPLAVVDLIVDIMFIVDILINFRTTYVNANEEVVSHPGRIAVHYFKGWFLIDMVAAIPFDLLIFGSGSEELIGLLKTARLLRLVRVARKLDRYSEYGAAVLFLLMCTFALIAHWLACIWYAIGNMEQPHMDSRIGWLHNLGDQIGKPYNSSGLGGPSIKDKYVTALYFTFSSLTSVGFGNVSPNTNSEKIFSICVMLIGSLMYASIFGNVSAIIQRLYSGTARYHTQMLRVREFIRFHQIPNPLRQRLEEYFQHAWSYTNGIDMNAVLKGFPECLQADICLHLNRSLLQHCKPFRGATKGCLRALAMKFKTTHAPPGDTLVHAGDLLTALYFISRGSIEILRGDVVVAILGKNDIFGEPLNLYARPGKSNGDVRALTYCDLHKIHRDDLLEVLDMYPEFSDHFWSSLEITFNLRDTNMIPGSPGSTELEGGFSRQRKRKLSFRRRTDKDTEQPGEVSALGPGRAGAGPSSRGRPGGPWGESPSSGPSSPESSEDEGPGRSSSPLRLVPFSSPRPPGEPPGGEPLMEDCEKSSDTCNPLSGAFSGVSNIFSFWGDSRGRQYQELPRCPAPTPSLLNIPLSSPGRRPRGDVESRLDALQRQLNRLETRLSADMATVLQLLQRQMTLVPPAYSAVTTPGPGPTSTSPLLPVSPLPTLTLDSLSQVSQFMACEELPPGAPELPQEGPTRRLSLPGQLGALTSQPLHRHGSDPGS
Procedure: hERG (human ether-a-go-go-related gene) inhibition was measured at Eurofins Cerep France using hERG Human Potassium Ion Channel [3H] Dofetilide Binding (Antagonist Radioligand) Assay.

[2] = Toxicity in mice after a single oral administration; assay type: in vivo; details: over a 24-h period after a single oral administration at 30 mg/kg
Procedure: For these reasons, this compound was selected for multi-organ pharmacokinetic (PK) studies to measure its temporal distribution and tissue concentration in female mice (CD-1), following a single oral administration of 30 mg/kg (Fig. EV3A; Appendix Table S3).

[3] = Pharmacokinetics in mice, single oral dose (plasma, whole lung); details: for concentration at 0.5 h / concentration at 1 h / concentration at 1.5 h / concentration at 2 h / concentration at 4 h / concentration at 6 h / concentration at 24 h: mice
Procedure: BDM91288 (5) was dissolved in 10% kleptose hydroxypropyl-β-cyclodextrin in distilled water and administered per os at 30 mg/kg to female CD-1 mice (~25–30 g). The concentration of BDM91288 (5) in plasma and lungs was measured at different time points after administration of a single dose of compounds. Three mice per time point were anesthetized with isoflurane and blood taken from the retro-orbital sinus using sampling heparinated tubes (4 °C). The blood samples were centrifuged (3500 rpm, 20 min, 4 °C) for plasma separation and stored at −80 °C before BDM91288 measurement. After rodent sacrifice by cervical dislocation, lung was washed in sodium chloride solution (0.9%), frozen in liquid nitrogen and stored at −80 °C.
Plasma and BAL fluid samples were thawed on ice. Aliquots were precipitated with ice-cold MeCN/MeOH 50:50 (1 to 10 ratio) containing propranolol (100 nM) as internal standard. The samples were vigorously mixed with a vortex and centrifuged for 10 min at 12,000 rpm, 4 °C, and the supernatants were transferred into Matrix tubes for LC-MS/MS analysis. Lungs were homogenized in ultrapure water, in a 1 to 4 ratio (W/V) (using a Tissue Lyzer II from Qiagen); then compounds were extracted with a MeOH/MeCN 50:50 mixture in a 1 to 1 ratio (V/V). After centrifugation (12,000 rpm, 10 min, 4 °C) of the homogenate samples, supernatants were diluted (1 to 10) with a MeOH/MeCN 50:50 mixture containing propranolol (100 nM) as internal standard and transferred into Matrix tubes for LC-MS/MS analysis. Spiked standard solutions were prepared the same way in control matrix.
Samples were analysed using a UPLC system Acquity I Class (Waters), combined with a triple quadrupole mass spectrometer Xevo TQD (Waters). The column, placed at 40 °C, was an Acquity BEH C18 50 × 2.1 mm, 1.7 μm column (Waters) and the following mobile phases were used: H2O 0.1% HCOOH as solvent A and MeCN 0.1% HCOOH as solvent B at a flow rate of 0.6 mL/min. The gradient was initiated at 2% B, maintained for 10 s then increased linearly to 98% B in 1′50 and maintained at 98% B for 30 s before returning to initial conditions. […] Data analysis and processing were performed using MassLynx software (Waters).

[4] = Pharmacokinetics in mice in combination with levofloxacin (plasma, lung after BAL, ELF); assay type: in vivo, female CD-1 mice; details: female, CD-1, mouse, ELF and plasma, oral; higher than plasma; read-out: ELF exposure (AUC) relative to that measured in the plasma
Procedure: The concentration of compounds in plasma, lungs and ELF was measured after 2 h, 6 h and 24 h. […] After rodent sacrifice by cervical dislocation, bronchoalveolar lavage (BAL) fluid was collected using a cannula inserted into the trachea. 1 mL of PBS was introduced in lungs via the cannula and the collected BAL fluid was centrifuged (5 min, 3500 rpm, 4 °C). Supernatants were removed, their volume recorded, and samples stored at −80 °C until analysis.
Plasma and BAL fluid samples were thawed on ice.
The concentration of compound in ELF, [cpd]ELF, was calculated as follows: cpdELF=cpdBALxVBAL/VELF where [cpd]BAL is the measured concentration of compound in BAL fluid supernatant, VBAL and VELF, the volume of aspired BAL and the calculated volume of ELF, respectively.
The volume of ELF was calculated as follows: VELF=VBALxUreaBAL/UreaPlasma where VELF represents the apparent volume of ELF, VBAL is the volume of aspired BAL, and [Urea]BAL and [Urea]Plasma are concentration of urea in BAL fluid or plasma, respectively.
Concentrations of urea in plasma and in BAL fluid supernatant was measured using the UREA Nitrogen (BUN) colorimetric detection kit, according to the supplier procedural guidelines (Invitrogen).

[5] = female, CD-1, mouse, in vivo, po, 30 mg/kg
[6] = female, CD-1, mouse, in vivo, po, 30 mg/kg, Caverage plasma, single 30 mg/kg p.o.
[7] = female, CD-1, mouse, in vivo, po, 30 mg/kg, Caverage whole lung, single 30 mg/kg p.o.

In the case of Clc1cc2cc(N3CCNCC3)ccc2nc1N1CCNCC1 [compound 5], the solubility at 24 h (Solubility in PBS pH 7.4) is reported as ≥ 1000 µM, the “inhibition of the hERG potassium channel” value [1] is reported as 8% and the toxicity in mice [2] is reported as “no toxicity was observed”. For the same compound, the Tmax [3, 5] was 4 h, the half-life [3, 5] was > 10 h and the AUC(0-t) ([3]; female, CD-1, mouse, in vivo, po, 30 mg/kg, AUC(0-24h) plasma, single 30 mg/kg p.o., female CD-1 mice) was 27 µM·h. It also gave an AUC(0-t) ([3]; female, CD-1, mouse, in vivo, po, 30 mg/kg, AUC(0-24h) whole lung, single 30 mg/kg p.o., female CD-1 mice) of 3880 µM·h, a concentration at 0.5 h [3, 6] of 800 nM and a concentration at 1 h [3, 6] of 1600 nM. It also gave a concentration at 1.5 h [3, 6] of 1300 nM, a concentration at 2 h [3, 6] of 1800 nM and a concentration at 4 h [3, 6] of 2000 nM. For the same compound, the concentration at 6 h [3, 6] was 1400 nM, the concentration at 24 h [3, 6] was 500 nM and the concentration at 0.5 h [3, 7] was 35.4 µM and 11700 ng/g. For the same compound, the concentration at 1 h [3, 7] was 93.5 µM and 31000 ng/g, the concentration at 1.5 h [3, 7] was 102 µM and 33800 ng/g and the concentration at 2 h [3, 7] was 160 µM and 53100 ng/g. The concentration at 4 h [3, 7] was 225 µM and 74700 ng/g, the concentration at 6 h [3, 7] was 168 µM and 55900 ng/g and the concentration at 24 h [3, 7] was 159 µM and 52800 ng/g. For the same compound, the Cmax ([3]; female, CD-1, mouse, in vivo, po, 30 mg/kg, Cmax plasma, single 30 mg/kg p.o., female CD-1 mice) was 2000 nM, the Cmax ([3]; female, CD-1, mouse, in vivo, po, 30 mg/kg, Cmax whole lung, single 30 mg/kg p.o., female CD-1 mice) was 225 µM and 75000 ng/g and the Cmax ([3]; read-out: Cmax whole lung, single 30 mg/kg p.o., female CD-1 mice, listed as BDM91288 (5)) was 225000 nM. It also gave a Kp [4] of 2.3.
